According to the supplement of paper PMC6965134:
± gives the standard deviation of the averaged measurements.

Test: TIMS collisional cross section (CCS, N2) of the lipid ion; higher = larger ion cross section
Conditions: ionization mode: positive, one isomer drawn

| TIMS collisional cross section (sample type: HeLa) [Å²] | TIMS collisional cross section (sample type: Liver) [Å²] | TIMS collisional cross section (sample type: plasma) [Å²] | Compound |
| --- | --- | --- | --- |
|  | 305.9 |  | CCCCCCCC/C=C\CCCCCCCC(=O)OC[C@@H](COC(=O)CCCCCCCCCCCCC)OC(=O)CCCCCCCCCCCCC [TG 14:0_14:0_18:1] (ion (formula + adduct): [C49H92O6+NH4] 1+) |
|  | 299.8 |  | CCCC/C=C\CCCCCCCC(=O)O[C@H](COC(=O)CCCCCCCCCCCCC)COC(=O)CCCCCCCCCCCCCCC [TG 14:0_14:1_16:0] (ion (formula + adduct): [C47H88O6+NH4] 1+) |
| 297.4 |  |  | CCCC/C=C\CCCCCCCC(=O)O[C@@H](COC(=O)CCCCCCC/C=C\CCCCCC)COC(=O)CCCCCCCCCCCCC [TG 14:0_14:1_16:1] (ion (formula + adduct): [C47H86O6+NH4] 1+) |
|  | 302 |  | CCCCCCCCCCCCCCC(=O)OC[C@@H](COC(=O)CCCCCCCCCCCCC)OC(=O)CCCCCCCCCCCCCC [TG 14:0_15:0_15:0] (ion (formula + adduct): [C47H90O6+NH4] 1+) |
|  | 304.9 | 304.83 ± 0.05 | CCCCCCCCCCCCCCCC(=O)OC[C@@H](COC(=O)CCCCCCCCCCCCC)OC(=O)CCCCCCCCCCCCCC [TG 14:0_15:0_16:0] (ion (formula + adduct): [C48H92O6+NH4] 1+) |
| 302.8 |  | 302.85 ± 0.49 | CCCCCC/C=C\CCCCCCCC(=O)OC[C@@H](COC(=O)CCCCCCCCCCCCC)OC(=O)CCCCCCCCCCCCCC [TG 14:0_15:0_16:1] (ion (formula + adduct): [C48H90O6+NH4] 1+) |
|  | 303.1 |  | CCCCC/C=C\CCCCCCCC(=O)O[C@H](COC(=O)CCCCCCCCCCCCC)COC(=O)CCCCCCCCCCCCCCC [TG 14:0_15:1_16:0] (ion (formula + adduct): [C48H90O6+NH4] 1+) |
| 308.5 | 308.4 | 308.1 ± 0.22 | CCCCCCCCCCCCCCCC(=O)OC[C@@H](COC(=O)CCCCCCCCCCCCC)OC(=O)CCCCCCCCCCCCCCC [TG 14:0_16:0_16:0] (ion (formula + adduct): [C49H94O6+NH4] 1+) |
| 306.03 ± 0.35 | 306.1 | 306 ± 0.3 | CCCCCC/C=C\CCCCCCCC(=O)OC[C@@H](COC(=O)CCCCCCCCCCCCC)OC(=O)CCCCCCCCCCCCCCC [TG 14:0_16:0_16:1] (ion (formula + adduct): [C49H92O6+NH4] 1+) |
|  | 311.5 |  | CCCCCCCCCCCCCCCCC(=O)OC[C@@H](COC(=O)CCCCCCCCCCCCC)OC(=O)CCCCCCCCCCCCCCC [TG 14:0_16:0_17:0] (ion (formula + adduct): [C50H96O6+NH4] 1+) |
| 309.1 | 309 |  | CCCCCCC/C=C\CCCCCCCC(=O)OC[C@@H](COC(=O)CCCCCCCCCCCCC)OC(=O)CCCCCCCCCCCCCCC [TG 14:0_16:0_17:1] (ion (formula + adduct): [C50H94O6+NH4] 1+) |
|  | 314.3 |  | CCCCCCCCCCCCCCCCCC(=O)OC[C@@H](COC(=O)CCCCCCCCCCCCC)OC(=O)CCCCCCCCCCCCCCC [TG 14:0_16:0_18:0] (ion (formula + adduct): [C51H98O6+NH4] 1+) |
| 311.9 ± 0.14 | 312.4 | 312.07 ± 0.22 | CCCCCCCC/C=C\CCCCCCCC(=O)OC[C@@H](COC(=O)CCCCCCCCCCCCC)OC(=O)CCCCCCCCCCCCCCC [TG 14:0_16:0_18:1] (ion (formula + adduct): [C51H96O6+NH4] 1+) |
|  | 308.9 |  | CCCCC/C=C\C/C=C\CCCCCCCC(=O)OC[C@@H](COC(=O)CCCCCCCCCCCCC)OC(=O)CCCCCCCCCCCCCCC [TG 14:0_16:0_18:2] (ion (formula + adduct): [C51H94O6+NH4] 1+) |

More lines, now with the values behind:

| Compound | TIMS collisional cross section (sample type: HeLa) [Å²] | TIMS collisional cross section (sample type: Liver) [Å²] | TIMS collisional cross section (sample type: plasma) [Å²] |
| --- | --- | --- | --- |
| CCCC/C=C\CCCCCCCC(=O)O[C@@H](COC(=O)CCCCCCC/C=C\CCCCCC)COC(=O)CCCCCCCCCCCC [TG 13:0_14:1_16:1] (ion (formula + adduct): [C46H84O6+NH4] 1+) | 293.9 | 291.9 |  |
| CCCCCCCCCCCCCCCC(=O)OC[C@@H](COC(=O)CCCCCCCCCCCC)OC(=O)CCCCCCCCCCCCCC [TG 13:0_15:0_16:0] (ion (formula + adduct): [C47H90O6+NH4] 1+) | 301.7 | 301.4 |  |
| CCCCCC/C=C\CCCCCCCC(=O)OC[C@@H](COC(=O)CCCCCCCCCCCC)OC(=O)CCCCCCCCCCCCCC [TG 13:0_15:0_16:1] (ion (formula + adduct): [C47H88O6+NH4] 1+) | 299.7 | 299.6 |  |
| CCCCCCCCCCCCCCCC(=O)OC[C@@H](COC(=O)CCCCCCCCCCCC)OC(=O)CCCCCCCCCCCCCCC [TG 13:0_16:0_16:0] (ion (formula + adduct): [C48H92O6+NH4] 1+) | 305 |  |  |
| CCCCCCCCCCCCCCCCC(=O)OC[C@@H](COC(=O)CCCCCCCCCCCC)OC(=O)CCCCCCCCCCCCCCC [TG 13:0_16:0_17:0] (ion (formula + adduct): [C49H94O6+NH4] 1+) | 308 |  |  |
| CCCCCCCC/C=C\CCCCCCCC(=O)OC[C@@H](COC(=O)CCCCCCCCCCCC)OC(=O)CCCCCCCCCCCCCCC [TG 13:0_16:0_18:1] (ion (formula + adduct): [C50H94O6+NH4] 1+) |  |  | 309.5 |
| CCCCCC/C=C\CCCCCCCC(=O)O[C@@H](COC(=O)CCCCCCC/C=C\CCCCCCCC)COC(=O)CCCCCCCCCCCC [TG 13:0_16:1_18:1] (ion (formula + adduct): [C50H92O6+NH4] 1+) | 306.8 |  |  |
| CCCCC/C=C\C/C=C\CCCCCCCC(=O)OC[C@@H](COC(=O)CCCCCCCCCCCC)OC(=O)CCCCCCC/C=C\CCCCCC [TG 13:0_16:1_18:2] (ion (formula + adduct): [C50H90O6+NH4] 1+) |  |  | 305.3 |
| CCCCCCCCCCCCCCC(=O)OC[C@@H](COC(=O)CCCCCCCCCCCCC)OC(=O)CCCCCCCCCCCCC [TG 14:0_14:0_15:0] (ion (formula + adduct): [C46H88O6+NH4] 1+) | 297.1 |  |  |
| CCCCCCCCCCCCCCCC(=O)OC[C@@H](COC(=O)CCCCCCCCCCCCC)OC(=O)CCCCCCCCCCCCC [TG 14:0_14:0_16:0] (ion (formula + adduct): [C47H90O6+NH4] 1+) | 301.7 |  | 301.3 ± 0.4 |
| CCCCCC/C=C\CCCCCCCC(=O)OC[C@@H](COC(=O)CCCCCCCCCCCCC)OC(=O)CCCCCCCCCCCCC [TG 14:0_14:0_16:1] (ion (formula + adduct): [C47H88O6+NH4] 1+) | 299.3 | 299.1 |  |
| CCCCCCCCCCCCCCCCC(=O)OC[C@@H](COC(=O)CCCCCCCCCCCCC)OC(=O)CCCCCCCCCCCCC [TG 14:0_14:0_17:0] (ion (formula + adduct): [C48H92O6+NH4] 1+) | 304.6 |  |  |
